Measurements as given in patent publication US9499493B2, “2,4-pyrimidinediamine compounds and their uses” (Rigel Pharmaceuticals, Inc., priority 2002, dated 2016).

Legend:
[1] = test system: cultured human mast cells (CHMC); experiment: CHMC low cell density ionomycin activation: tryptase assay; format: cell-based
[2] = test system: cultured human mast cells (CHMC); experiment: CHMC low cell density IgE activation: tryptase assay; format: cell-based; settings: anti-IgE
How it was run: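 Supernatant tryptase activity, assayed with substrate for 30 min at room temperature, served as the degranulation measure. Mast cells (1000-1500 per well depending on donor) sat 1 hr at 37° C in MT before a 30 min anti-IgE challenge at 37° C.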

Structure (SMILES)	IC50 [1]	IC50 [2]
CCOC(=O)CNC(=O)Nc1c(Nc2ccc(OCC(=O)OCC)cc2)nc(Nc2ccc(OCC(=O)OCC)cc2)nc1C(=O)OCC [R926587, N2,N4-Bis(4-ethoxycarbonylmethyleneoxyphenyl)-6-ethoxycarbonyl-5-(ethoxycarbonylmethyleneaminocarbonylamino)-2,4-pyrimidinediamine]	> 10 µM	> 10 µM
CCOC(=O)COc1ccc(Nc2nc(Nc3ccc(OCC(=O)OCC)cc3)c(NC(=O)NC3CCCC3)c(C(=O)OCC)n2)cc1 [R926588, N2,N4-Bis(4-ethoxycarbonylmethyleneoxyphenyl)-6-ethoxycarbonyl-5-(cyclopentylaminocarbonylamino)-2,4-pyrimidinediamine]	> 10 µM	7.85 µM
CSc1nc(Nc2cccc(O)c2)nc(Nc2cccc(O)c2)c1Cl [R926595, N2,N4-Bis(3-hydroxyphenyl)-5-chloro-6-thiomethyl-2,4-pyrimidinediamine]	> 10 µM	4.85 µM
COCc1cc(=O)oc2cc(Nc3ncc(F)c(Nc4ccc5c(COC)cc(=O)oc5c4)n3)ccc12 [R926620]	> 10 µM	8.35 µM
COCOc1ccc(Nc2nc(Nc3cccc(O)c3)ncc2F)c(F)c1 [R926680, 5-Fluoro-N4-[2-fluoro-4-(methoxymethyleneoxy)phenyl]-N2-(3-hydroxyphenyl)-2,4-pyrimidinediamine]	> 10 µM	1.71 µM
CC1(C)COC(COc2ccc(Nc3ncc(F)c(Nc4cccc(O)c4)n3)cc2)=N1 [R926702, 5-Fluoro-N4-(3-hydroxyphenyl)-N2-[4-[(4,4-dimethyl-3-oxazolin-2-yl)methyleneoxy]phenyl]-2,4-pyrimidinediamine]	> 10 µM	0.886 µM
Fc1cnc(Nc2ccc(OCCN3CCOCC3)cc2)nc1Nc1ccc2c(c1)OCCO2 [R926709, N4-(3,4-Ethylenedioxyphenyl)-5-fluoro-N2-[4-[2-(N-morpholino)ethyleneoxy]phenyl]-2,4-pyrimidinediamine]	> 10 µM	0.858 µM
Oc1cccc(Nc2ncc(F)c(Nc3ccc(OCCN4CCOCC4)cc3)n2)c1 [R926710, 5-Fluoro-N2-(3-hydroxyphenyl)-N4-[4-[2-(N-morpholino)ethyleneoxy]phenyl]-2,4-pyrimidinediamine]	> 10 µM	1.76 µM
Fc1cnc(Nc2ccc3c(c2)OCCO3)nc1Nc1ccc(OCCN2CCOCC2)cc1 [R926711, N2-(3,4-Ethylenedioxyphenyl)-5-fluoro-N4-[4-[2-(N-morpholino)ethyleneoxy]phenyl]-2,4-pyrimidinediamine]	> 10 µM	1.25 µM
CN(C)C(=O)c1cc2cc(Nc3ncc(F)c(Nc4cccc(O)c4)n3)ccc2o1 [R926718, 5-Fluoro-N4-(3-hydroxyphenyl)-N2-[2-(N-dimethylamino)carbonylbenzofuran-5-yl]-2,4-pyrimidinediamine]	> 10 µM	1.83 µM
CC(C)(C)c1ccc(Nc2nc(Nc3cccc(OCC(=O)O)c3)ncc2F)cc1 [R926726, N4-(4-tert-Butylphenyl)-N2-(3-carboxymethyleneoxyphenyl)-5-fluor-2,4-pyrimidinediamine]	> 10 µM	> 10 µM
CCOC(=O)CSc1ccc(Nc2ncc(F)c(Nc3ccc4c(c3)OCCO4)n2)cn1 [R926727, N2-[2-(Ethoxycarbonylmethylenethio)pyridin-5-yl]-N4-(3,4-ethylenedioxyphenyl)-5-fluoro-2,4-pyrimidinediamine]	> 10 µM	0.387 µM
CC(C)(C)c1ccc(Nc2nc(Nc3cccc(OCCO)c3)ncc2F)cc1 [R926728]	> 10 µM	0.482 µM
CC(C)Oc1ccc(Nc2nc(Nc3cccc(OCC(=O)O)c3)ncc2F)cc1 [R926731, 5-Fluoro-N2-[3-(carboxymethyleneoxy)phenyl]-N4-[4-(isopropoxy)phenyl]-2,4-pyrimidinediamine]	> 10 µM	> 10 µM
CNC(=O)COc1cccc(Nc2ncc(F)c(Nc3ccc4c(c3)OC(F)(F)C(F)(F)O4)n2)c1 [R926732, 5-Fluoro-N4-[3,4-(1,1,2,2-tetrafluoroethylendioxy)phenyl]-N2-[3-(N-methylamino)carbonylmethyleneoxyphenyl]-2,4-pyrimidinediamine]	> 10 µM	0.444 µM
OCCOc1cccc(Nc2ncc(CO)c(Nc3cccc(O)c3)n2)c1 [R926735, 5-(Hydroxymethyl)-N2-[3-(2-hydroxyethyleneoxy)phenyl]-N4-(3-hydroxyphenyl)-2,4-pyrimidinediamine]	> 10 µM	3.71 µM
COc1cccc(Nc2nc(Nc3cccc(OCC(=O)NCC(O)CO)c3)ncc2F)c1 (centres unmarked) [R926739, N2-[3-(N-2,3-Dihydroxypropylamino)carbonylmethyleneoxyphenyl]-5-fluoro-N4-(3-methoxyphenyl)-2,4-pyrimidinediamine]	> 10 µM	0.508 µM
CCOC(=O)COc1ccc(Nc2ncc(F)c(Nc3ccc4c(c3)OCCO4)n2)cn1 [R926740, N2-[2-(Ethoxycarbonylmethyleneoxy)pyridin-5-yl]-N4-(3,4-ethylenedioxyphenyl)-5-fluoro-2,4-pyrimidinediamine]	> 10 µM	4.42 µM
O=C(COc1cccc(Nc2ncc(F)c(Nc3cccc(O)c3)n2)c1)NCC(O)CO (centres unmarked) [R926746, 5-Fluoro-N4-(3-hydroxyphenyl)-N2-[3-(N-2,3-dihydroxypropylamino)carbonylmethyleneoxyphenyl]-2,4-pyrimidinediamine]	> 10 µM	0.989 µM
NC(=O)COc1cccc(Nc2ncc(F)c(Nc3ccc4c(c3)OCCO4)n2)c1 [R926747, N2-(3-Aminocarbonylmethyleneoxyphenyl)-N4-(3,4-ethylenedioxyphenyl)-5-fluoro-2,4-pyrimidinediamine]	> 10 µM	0.213 µM
CC(C)(CO)NC(=O)COc1cccc(Nc2ncc(F)c(Nc3ccc4c(c3)OCCO4)n2)c1 [R926764, N4-(3,4-Ethylenedioxyphenyl)-5-fluoro-N2-[3-(N-2-hydroxy-1,1-dimethylethylamino)carboxymethyleneoxyphenyl]-2,4-pyrimidinediamine]	5.64 µM	0.252 µM
O=C(COc1cccc(Nc2ncc(F)c(Nc3ccc4c(c3)OCCO4)n2)c1)NC1CCCCC1 [R926765, N2-[3-(N-Cyclohexylamino)carbonylmethyleneoxyphenyl]-N4-(3,4-ethylenedioxyphenyl)-5-fluoro-2,4-pyrimidinediamine]	4.39 µM	0.324 µM

Next, values leading:

IC50 [1]	IC50 [2]	Structure (SMILES)
> 10 µM	0.76 µM	CCOC(=O)COc1ccc(Nc2ncc(F)c(Nc3ccc(OCC(=O)OCC)c(Cl)c3)n2)cc1Cl [R926676, N2,N4-Bis[3-chloro-4-(ethoxycarbonylmethyleneoxy)phenyl]-5-fluoro-2,4-pyrimidinediamine]
> 10 µM	0.472 µM	CNC(=O)COc1ccc(Nc2ncc(F)c(Nc3ccc4c(c3)OCCO4)n2)cc1 [R926708, N4-(3,4-Ethylenedioxyphenyl)-5-fluoro-N2-[4-(N-methylamino)carbonylmethyleneoxyphenyl]-2,4-pyrimidinediamine]
> 10 µM	1.08 µM	CNC(=O)COc1ccc(Nc2ncc(F)c(Nc3ccc(C(C)(C)C)cc3)n2)cc1 [R926712, N4-(4-tert-Butylphenyl)-5-fluoro-N2-[4-(N-methylamino)carbonylmethyleneoxyphenyl]-2,4-pyrimidinediamine]
> 10 µM	0.428 µM	CNC(=O)COc1cccc(Nc2ncc(F)c(Nc3ccc(C(C)(C)C)cc3)n2)c1 [R926714, N4-(4-tert-Butylphenyl)-5-fluoro-N2-[3-(N-methylamino)carbonylmethyleneoxyphenyl]-2,4-pyrimidinediamine]
> 10 µM	0.251 µM	CNC(=O)COc1cccc(Nc2ncc(F)c(Nc3ccc(OC(C)C)cc3)n2)c1 [R926730, 5-Fluoro-N4-(4-isopropoxyphenyl)-N2-[3-(N-methylamino)carbonylmethyleneoxyphenyl]-2,4-pyrimidinediamine]
> 10 µM	1.5 µM	CNC(=O)COc1cccc(Nc2ncc(F)c(Nc3ccc(OC)c(OC)c3)n2)c1 [R926733, N4-(3,4-Dimethoxyphenyl)-5-fluoro-N2-[3-(N-methylamino)carbonylmethyleneoxyphenyl]-2,4-pyrimidinediamine]
> 10 µM	4.49 µM	COc1ccc(Nc2nc(Nc3cccc(OCC(=O)NCC(O)CO)c3)ncc2F)cc1OC (centres unmarked) [R926734, N2-[3-(N-2,3-Dihydroxypropylamino)carbonylmethyleneoxyphenyl]-N4-(3,4-dimethoxyphenyl)-5-fluoro-2,4-pyrimidinediamine]
> 10 µM	0.342 µM	CNC(=O)COc1cccc(Nc2ncc(F)c(Nc3cccc(OC)c3)n2)c1 [R926738, 5-Fluoro-N4-(3-methoxyphenyl)-N2-[3-(N-methylamino)carbonylmethyleneoxyphenyl]-2,4-pyrimidinediamine]
> 10 µM	0.338 µM	CNC(=O)COc1cc(Nc2ncc(F)c(Nc3ccc4cc[nH]c4c3)n2)ccc1OC [R926752, 5-Fluoro-N4-[(1H)-indol-6-yl]-N2-[4-methoxy-3-[(N-methylamino)carbonylmethyleneoxy]phenyl]-2,4-pyrimidinediamine]
> 10 µM	0.388 µM	CNC(=O)COc1cccc(Nc2ncc(F)c(Nc3cccc(B(O)O)c3)n2)c1 [R926754, 5-Fluoro-N4-(3-dihydroxyborylphenyl)-N2-[3-[(N-methylamino)carbonylmethyleneoxy]phenyl]-2,4-pyrimidinediamine]
> 10 µM	0.688 µM	CNC(=O)COc1cc(Nc2ncc(F)c(Nc3ccc(C)c(O)c3)n2)ccc1C [R926759, 5-Fluoro-N4-(3-hydroxy-4-methylphenyl)-N2-[4-methyl-3-[(N-methylamino)carbonylmethyleneoxy]phenyl]-2,4-pyrimidinediamine]
> 10 µM	2.89 µM	CNC(=O)COc1cc(Nc2ncc(F)c(Nc3ccc(C)c(OCC(=O)NC)c3)n2)ccc1C [R926760, 5-Fluoro-N2,N4-bis[4-methyl-3-[(N-methylamino)carbonylmethyleneoxy]phenyl]-2,4-pyrimidinediamine]
